# “And” between values parts separate entries of the source, which are not always exact repeats. Equal entries are not always repeated. Where a SMILES comes first, the peptide text is derived from it.
# Tests used:
# [1] = 18 μM in pure water, 37° C., 72 hours (3 days)
# Experimental: A 200 μL sample of purified ˜18 μM cloacaenodin in water was incubated at 37° C. for 72 hours. 30 μL of the sample was injected on LC-MS at 24-hour increments.
# Enterobacter strains = experiment: Spot-on-lawn assay, CDC & FDA Antibiotic Resistance Isolate Bank panels; assay type: cell-based; settings: three of the four Enterobacter strains of the CRE/BIT panels, M63 agar
# Source text: (§1) FIG. 42. Spot-on-lawn assays of tested clinical isolates treated with cloacaenodin in M63 agar. From the initial concentration shown to the left of the curved arrow and in the direction of the curved arrow, two-fold serial dilutions of cloacaenodin were spotted. The straight arrows point to the last visible spot on the plate which corresponds to the recorded minimal inhibitory concentration (MIC). Spot 8 is pure water in all plates. AR Bank #0132, AR Bank #0136, AR Bank #0144, and AR Bank #0154 are from the CRE panel. AR Bank #0001 and AR Bank #0002 are from the BIT panel.
# (§2) Two panels from the CDC & FDA Antibiotic Resistance Isolate Bank were used: the Enterobacterales Carbapenemase Diversity (CRE) panel and the Enterobacterales Carbapenem Breakpoint (BIT) panel.^81 These panels represent strains with resistance to carbapenems, which are last resort antibiotics: there is an urgent need of new treatments of infections with these strains.
# (§3) We tested 6 strains: 4 Enterobacter strains, 1 Kluyvera strain, and 1 Escherichia coli strain.
# Kluyvera strain = experiment: as above; assay type: cell-based; settings: carbapenem-resistant CRE/BIT panel strain, M63 agar
# Source text: as §1, §2, §3
# [2] = system: clinical isolates of Enterobacter; experiment: Spot-on-lawn assay, panel of clinical isolates (Table 7); assay type: cell-based
# Experimental: The type strain of Enterobacter cloacae (ATCC 13047) tested as discussed above was isolated from human cerebrospinal fluid in 1890^66 before the era of antibiotics. The activity of cloacaenodin was also tested against more recent clinical isolates. A panel of two (2) clinical isolates of Enterobacter using the spot-on-lawn assay was tested (Table 7).
# Cloacaenodin was evaluated against several common laboratory strains as well as commercially acquired strains using a spot-on-lawn assay.^45 Strains were streaked out onto LB agar plates and incubated overnight at their recommended temperatures. A single colony was then used to inoculate an overnight culture in 5 mL of LB broth. After shaking at 250 rpm at the recommended temperature for each strain, 50 μL of the overnight culture was used to inoculate 5 mL of LB broth (volume ratio 1:100). These cultures were grown for a few hours until they reached the exponential phase (OD600˜0.4-0.6) before being added to 10 mL of soft M63 agar at a final cell density of 10^7 CFUs/mL, or 10^8 CFUs total in 10 mL. […] The plates were incubated overnight at the strains' recommended temperatures and analyzed the next morning for activity. […]
# [3] = system: Enterobacter nimipressuralis DSM 18955; experiment: Spot-on-lawn assay in M63 agar; assay type: cell-based
# Experimental: (§4) Cloacaenodin was evaluated against several common laboratory strains as well as commercially acquired strains using a spot-on-lawn assay.^45 Strains were streaked out onto LB agar plates and incubated overnight at their recommended temperatures. A single colony was then used to inoculate an overnight culture in 5 mL of LB broth. After shaking at 250 rpm at the recommended temperature for each strain, 50 μL of the overnight culture was used to inoculate 5 mL of LB broth (volume ratio 1:100). These cultures were grown for a few hours until they reached the exponential phase (OD600˜0.4-0.6) before being added to 10 mL of soft M63 agar at a final cell density of 10^7 CFUs/mL, or 10^8 CFUs total in 10 mL. The M63 soft agar was composed of 2 g/L of (NH4)2SO4 (EMD MilliporeSigma), 13.6 g/L of KH2PO4 (Fisher), 40 mg/L of each of the 20 common amino acids, 0.2% glucose (Sigma), 0.00005% w/v thiamine hydrochloride (Sigma), and 0.65% w/v bacteriological-grade agar (Apex Bioresearch). […] Upon solidification, 10 μL of purified cloacaenodin in water at two-fold dilutions were then spotted onto the agar and allowed to dry. The plates were incubated overnight at the strains' recommended temperatures and analyzed the next morning for activity. The MIC is defined as the last dilution where a spot was visible.
# [4] = system: Klebsiella aerogenes ATCC 13048; experiment: Spot-on-lawn assay in M63 agar; assay type: cell-based; settings: purified cloacaenodin in water
# Experimental: as §4
# [5] = system: Enterobacter hormaechei ATCC 700323; experiment: Spot-on-lawn assay in M63 agar; assay type: cell-based; settings: purified cloacaenodin in water
# Experimental: as §4
# [6] = system: Salmonella enterica serovar Newport; experiment: Spot-on-lawn assay in M63 agar; assay type: cell-based; settings: purified cloacaenodin in water
# Experimental: as §4
# [7] = system: Enterobacter kobei BAA-260; experiment: Spot-on-lawn assay in M63 agar; assay type: cell-based; settings: purified cloacaenodin in water
# Experimental: as §4
# [8] = system: Enterobacter cloacae UCI102; experiment: MIC in M63 media (liquid); assay type: cell-based; settings: clinical isolate Enterobacter cloacae UCI102
# Experimental: For liquid inhibition assays, 5 mL LB broth was inoculated with 40-50 μL of an overnight culture of E. cloacae or E. amnigenus. […] The plate was shaken at 30° C. at 250 rpm for E. cloacae, and 37° C. at 250 rpm for E. amnigenus. The OD600 was measured at 8-hour and 16-hour increments. The MIC is defined as the lowest concentration of cloacaenodin for which growth (as assessed by the OD600) was inhibited.
# [9] = system: Enterobacter asburiae MGH243; assay type: cell-based
# Experimental: as §4
# Twelve (12) clinical isolates were tested at the Broad Institute of MIT and Harvard, with a subset of strains from BioProject PRJNA292902, BioProject PRJNA271899, BioProject PRJNA201976, and BioProject 219285. The strains were tested following the same spot-on-lawn assay protocol described above, but with BD Bacto Agar used instead. All cloacaenodin-treated isolates were incubated at 37° C. overnight, and the assay was repeated at least three times (on biological replicates) for each of the twelve (12) strains. We defined a strain to be susceptible if it was reliably susceptible in at least three biological replicates.
# [10] = Stability of NMR sample kept at 4° C., LC-MS before and after acquisition; assay type: physicochemical; settings: 95:5 H2O:D2O
# Experimental: The structure of cloacaenodin in water was determined using two-dimensional (2D) nuclear magnetic resonance (NMR) analysis, a technique that has been successfully used to show the threaded shape of lasso peptides.^51 The possibility of cloacaenodin unthreading during the NMR acquisition was addressed by keeping the sample at 4° C. throughout acquisition. […] As an additional control, one-dimensional (1D) NMR spectra were acquired in between each 2D NMR spectrum acquisition to ensure stability of the sample (FIG. 12).
# NMR studies were performed at the Princeton University Department of Chemistry NMR Facilities using a Bruker Avance III HD 800 MHz NMR spectrometer. Purified cloacaenodin was prepared at a concentration of 6.7 mg/mL (2.6 mM) in 95:5 H2O:D2O. The NMR spectra were acquired at 4° C. to minimize any cloacaenodin unthreading. A ^1H-^1H TOCSY spectrum at a mixing time of 80 ms was acquired, as well as 1H-1H NOESY spectra at 150 ms and 300 ms. Water suppression was used in the collection of all NMR data. To verify that the lasso peptide was not undergoing unthreading, 1D 1H NMR data were collected in between each 2D NMR acquisition and analyzed to see that the 1D spectra stayed consistent. […]
smiles,measurement,setting,value
"CC[C@H](C)[C@@H]1NC(=O)[C@H](CCCNC(=N)N)NC(=O)[C@H](CC(=O)O)NC(=O)[C@H](C(C)C)NC(=O)[C@H](CO)NC(=O)[C@H](Cc2c[nH]cn2)NC(=O)CNC(=O)CC[C@@H](C(=O)N[C@@H](Cc2ccc(O)cc2)C(=O)N[C@@H](Cc2ccccc2)C(=O)NCC(=O)N2CCC[C@H]2C(=O)N2CCC[C@H]2C(=O)NCC(=O)N[C@@H](CC(C)C)C(=O)N2CCC[C@H]2C(=O)NCC(=O)N2CCC[C@H]2C(=O)N[C@H](C(=O)N[C@@H](CC(C)C)C(=O)N[C@@H](Cc2ccccc2)C(=O)N[C@@H](Cc2ccc(O)cc2)C(=O)N[C@@H](CO)C(=O)O)C(C)C)NC(=O)[C@@H]2CCCN2C1=O [cloacaenodin] (HELM PEPTIDE1{G.H.S.V.D.R.I.P.E.Y.F.G.P.P.G.L.P.G.P.V.L.F.Y.S}$PEPTIDE1,PEPTIDE1,1:R1-9:R3$$$V2.0; C-terminus assumed)",fraction remaining threaded (relative peak area on LC-MS),[1],~83% and > 80%
same,antimicrobial activity,Enterobacter strains,single digit micromolar
same,antimicrobial activity,Kluyvera strain,single digit micromolar
same,minimal inhibitory concentration (MIC),"[2]; six of the clinical isolates, three classified as carbapenem resistant",low micromolar
same,antimicrobial activity,[2]; the other clinical isolates of Table 7,either weak or no activity
same,strain susceptible to cloacaenodin,[3]; Lelliottia nimipressuralis DSM 18955,* Lelliottia nimipressuralis
same,antimicrobial activity (zones of inhibition),"[3]; spot-on-lawn, M63 agar, purified cloacaenodin in water",zones of inhibition in the low micromolar range
same,antimicrobial activity (zones of inhibition),[4],no observed activity
same,antimicrobial activity (zones of inhibition),[5],no observed activity
same,antimicrobial activity (zones of inhibition),[6],no observed activity
same,antimicrobial activity (zones of inhibition),[7],no observed activity
same,MIC in M63 media,[8],(agar)/230 nM
same,MIC in M63 media,[9],2 µM
same,threaded state after NMR acquisition,[10],remained threaded

# From patent US20260092086A1, “ANTIMICROBIAL LASSO PEPTIDES” (priority 2022, published 2026)
